# Experimental data from patent EP0857483A1, “Substituted aminopyridines in the treatment of glucose metabolism disorders” (ELI LILLY AND COMPANY, priority 1997, dated 1998).
# What was measured:
# [1] = tested on: I1 receptors over α2 adrenergic receptors; conditions: bovine RVLM; saturation binding; Ernsberger et al., J. Pharmacol. Exp. Ther., 264, 172-182 (1993); cited from earlier work
# [2] = tested on: Zucker diabetic fatty rat (ZDF-DRT-fa); assay: Plasma glucose in 6 week-old prediabetic Zucker diabetic fatty rats; format: in vivo; conditions: value (SEM)
# Procedure: (§1) The activity of the compounds of the present invention was determined by testing the efficacy in vivo in Zucker diabetic rats.
# (§2) The Zucker diabetic fatty rat (ZDF-DRT-fa) is a classic rodent model of diabetes associated with obesity and insulin resistance, with tissue specific defects in insulin sensitivity similar to human patients with type II diabetes mellitus. This animal model at six weeks of age is normoglycemic, but glucose intolerant (Clark JB, Palmer CJ, and Shaw WN: The diabetic Zucker fatty rat, Proceeding of the Society for Experimental Bioloqy and Medicine 173, 68-75, 1983; and Peterson RG, Shaw WN, Neel M, Little LA, Eichburg J: Zucker diabetic fatty rat as a model for non-insulin dependent diabetes mellitus. ILAR News 32:16-19, 1990.) Between seven and eight weeks of age, plasma glucose levels rise as the pancreatic beta cells lose their ability to secrete sufficient insulin to compensate for insulin resistance. In an attempt to maintain plasma glucose in normal range, the pancreas is forced to secrete increasing amount of insulin, resulting in hyperinsulinemia (Bue JM and Shaw WN: ZDF-Drt-fa rat: A new model with marked susceptibility to dietary manipulation. Diabetes 40:865A, 1991). The ZDF rat is usually studied between eight and nine weeks of age when it is hyperglycemic, hyperinsulinemic, and hyperlipemic, in an attempt to halt further decline of pancreatic function. The present study was carried out in six weeks old animals (prediabetic). The purpose of this study was to determine whether moxonidine treatment will prevent or delay onset of diabetes in the six weeks old prediabetic ZDF rat.
# (§3) To determine the impact of treatment with the substituted aminopyrimidines of Formula I on the progression of disease 6 week-old ZDF animals were grouped into the following categories, with 5 animals assigned to each group. Group 1 Control (5008 chow ad libitum) Group 2 Moxonidine (10 mg/kg/day) Group 3 Pair fed to correct for decrease in food consumption in 10 mg/kg/day group
# (§4) Rats were housed one per plastic cage with bedding and had free access to water and Purina Formulalab 5008 Chow (except pair fed group). Because previous studies had indicated a reduction in food consumption with moxonidine treatment, body weight and food consumption were monitored daily, and a group of control animals was pair fed to moxonidine treated group. Blood samples were collected from the tail vein. Plasma glucose and insulin levels are monitored weekly.
# (§5) Plasma glucose was measured by coupled hexokinase method on the IL Monarch System (Instrumentation Laboratory, Lexington, MA). Plasma insulin was determined with radioimmunoassay kit from Diagnostics Products Corporation (San Diego, CA) using rat insulin as a standard.
# (§6) Plasma glucose and plasma insulin were monitored weekly. The results of these in vivo experiments are set forth below in Tables 1 and 2. The value in parenthesis following the plasma glucose value and plasma insulin value is the standard error of the mean.
# [3] = tested on: Zucker diabetic fatty rat (ZDF-DRT-fa); assay: Plasma insulin in 6 week-old prediabetic Zucker diabetic fatty rats; format: in vivo; conditions: value (SEM)
# Procedure: as §1, §2, §3, §4, §5, §6
# [4] = tested on: Zucker diabetic fatty rat (ZDF-DRT-fa); assay: Further study: plasma glucose in ZDF rats with dose reduction and withdrawal of treatment; format: in vivo
# Procedure: as §3, §4, §5
# A further study was carried out as described above, except that moxonidine treatment was reduced to 6.4 mg/kg/day for two days, followed by resumption of moxonidine treatment at 10 mg/kg/day for 13 days, and then stopping moxonidine treatment.
compound,measurement,setting,value
Clc1cccc(Cl)c1N=C1NCCN1 [clonidine],selectivity value (Ki at α2 sites in µM/Ki sites in µM),[1],less than 4
"COc1nc(C)nc(Cl)c1N=C1NCCN1 [Moxonidine, 4-chloro-N-(imidazoline-2-ylidene) -6-methoxy-2-methyl-5-pyrimidineamine]",Plasma Glucose,"[2]; Day 0, 10 mg/kg/day",145.6 (2.4) mg/dl
same,Plasma Glucose,"[2]; Day 7, 10 mg/kg/day",148.1 (13.8) mg/dl
same,Plasma Glucose,"[2]; Day 14, 10 mg/kg/day",166.1 (11.2) mg/dl
same,Plasma Glucose,"[2]; Day 21, 10 mg/kg/day",164.2 (8.0) mg/dl
same,Plasma Glucose,"[2]; Day 28, 10 mg/kg/day",168.0 (12.6) mg/dl
same,Plasma Glucose,"[2]; Day 35, 10 mg/kg/day",191.6 (8.2) mg/dl
same,Plasma Glucose,"[2]; Day 42, 10 mg/kg/day",179.8 (6.1) mg/dl
same,Plasma Glucose,"[2]; Day 49, 10 mg/kg/day",152.1 (8.7) mg/dl
same,Plasma Glucose,"[2]; Day 63, 10 mg/kg/day",168.4 (12.6) mg/dl
same,Plasma Insulin,"[3]; Day 0, 10 mg/kg/day",10.9 (0.9) ng/ml
same,Plasma Insulin,"[3]; Day 7, 10 mg/kg/day",9.3 (1.0) ng/ml
same,Plasma Insulin,"[3]; Day 14, 10 mg/kg/day",12.7 (1.4) ng/ml
same,Plasma Insulin,"[3]; Day 21, 10 mg/kg/day",17.8 (1.2) ng/ml
same,Plasma Insulin,"[3]; Day 28, 10 mg/kg/day",23.4 (1.8) ng/ml
same,Plasma Insulin,"[3]; Day 35, 10 mg/kg/day",24.8 (1.4) ng/ml
same,Plasma Insulin,"[3]; Day 42, 10 mg/kg/day",20.6 (0.7) ng/ml
same,Plasma Glucose,"[4]; Treatment period day 0, mox @ 10 m/k/d",141.5333 mg/dL
same,Plasma Glucose,"[4]; Treatment period day 7, mox @ 10 m/k/d",152.8917 mg/dL
same,Plasma Glucose,"[4]; Treatment period day 14, mox @ 10 m/k/d",166.2528 mg/dL
same,Plasma Glucose,"[4]; Treatment period day 21, at this day reduced mox dose to 6.4 m/k/d",172.1556 mg/dL
same,Plasma Glucose,"[4]; Treatment period day 23, after two days at 6.4 m/k/d, mox @ 10 m/k/d resumed",254.0889 mg/dL
same,Plasma Glucose,"[4]; Treatment period day 28, mox @ 10 m/k/d",251.4833 mg/dL
same,Plasma Glucose,"[4]; Treatment period day 36, stopped mox treatment",242.5944 mg/dL
same,Plasma Glucose,"[4]; Treatment period day 42, 1 wk after mox is removed",265.9556 mg/dL
same,Plasma Glucose,"[4]; Treatment period day 49, 2 wks after mox is removed",410.425 mg/dL
